Laboratory results reported in PubChem BioAssay (NCI).
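Step 1: Grow cells in 96-well plates. Step 2: Expose to compound for 48 hours at 5 concentrations. Step 3: Interpolate endpoints linearly; if unreached, use highest concentration. TGI: total growth inhibition.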

Assays:
Test in all cases: inhibition of tumour cell growth, NCI panel, 48 h
786-0 renal = system: 786-0 renal
A498 renal = system: A498 renal
A549 NSCLC = system: A549 NSCLC
ACHN renal = system: ACHN renal
BT-549 breast = system: BT-549 breast
CAKI-1 renal = system: CAKI-1 renal
CCRF-CEM leukemia = system: CCRF-CEM leukemia
COLO 205 colon = system: COLO 205 colon
DU-145 prostate = system: DU-145 prostate
EKVX NSCLC = system: EKVX NSCLC
HCC-2998 colon = system: HCC-2998 colon
HCT-116 colon = system: HCT-116 colon
HCT-15 colon = system: HCT-15 colon
HL-60(TB) leukemia = system: HL-60(TB) leukemia
HOP-62 NSCLC = system: HOP-62 NSCLC
HOP-92 NSCLC = system: HOP-92 NSCLC
HS 578T breast = system: HS 578T breast
HT29 colon = system: HT29 colon
IGROV1 ovarian = system: IGROV1 ovarian
KM12 colon = system: KM12 colon
LOX IMVI melanoma = system: LOX IMVI melanoma
M14 melanoma = system: M14 melanoma
MALME-3M melanoma = system: MALME-3M melanoma
MCF7 breast = system: MCF7 breast
MDA-MB-231 breast = system: MDA-MB-231 breast
MDA-MB-435 = system: MDA-MB-435
MDA-N = system: MDA-N
MOLT-4 leukemia = system: MOLT-4 leukemia
NCI-H226 lung = system: NCI-H226 lung
NCI-H23 lung = system: NCI-H23 lung
NCI-H460 lung = system: NCI-H460 lung
NCI-H522 lung = system: NCI-H522 lung
NCI/ADR-RES ovarian = system: NCI/ADR-RES ovarian
OVCAR-3 ovarian = system: OVCAR-3 ovarian
OVCAR-4 ovarian = system: OVCAR-4 ovarian
OVCAR-5 ovarian = system: OVCAR-5 ovarian
OVCAR-8 ovarian = system: OVCAR-8 ovarian
PC-3 prostate = system: PC-3 prostate
RXF 393 renal = system: RXF 393 renal
SF-268 CNS = system: SF-268 CNS
SF-295 CNS = system: SF-295 CNS
SF-539 CNS = system: SF-539 CNS
SK-MEL-2 melanoma = system: SK-MEL-2 melanoma
SK-MEL-28 melanoma = system: SK-MEL-28 melanoma
SK-MEL-5 melanoma = system: SK-MEL-5 melanoma
SK-OV-3 ovarian = system: SK-OV-3 ovarian
SN12C renal = system: SN12C renal
SNB-19 CNS = system: SNB-19 CNS
SNB-75 CNS = system: SNB-75 CNS
SR leukemia = system: SR leukemia
SW-620 colon = system: SW-620 colon
T-47D breast = system: T-47D breast
TK-10 renal = system: TK-10 renal
U251 CNS = system: U251 CNS
UACC-257 melanoma = system: UACC-257 melanoma
UACC-62 melanoma = system: UACC-62 melanoma
UO-31 renal = system: UO-31 renal

Question: Which results are given for `CCN1C/C(=C\c2cc(OC)c(OC)c(OC)c2)C2=NN(c3ccccc3)C(c3cc(OC)c(OC)c(OC)c3)C2C1` (configuration not stated)?
Answer: TGI (786-0 renal): 1.48 µM; TGI (A498 renal): 43.6 µM; TGI (A549 NSCLC): 4.9 µM; TGI (ACHN renal): > 36 µM; TGI (BT-549 breast): 22 µM; TGI (CAKI-1 renal): 3.85 µM; TGI (CCRF-CEM leukemia): 8.3 µM; TGI (COLO 205 colon): 7.13 µM; TGI (DU-145 prostate): 23.6 µM; TGI (EKVX NSCLC): 11.4 µM; TGI (HCC-2998 colon): 2.25 µM; TGI (HCT-116 colon): 5.77 µM; TGI (HCT-15 colon): 25.7 µM; TGI (HL-60(TB) leukemia): > 23.8 µM; TGI (HOP-62 NSCLC): 2.51 µM; TGI (HOP-92 NSCLC): 13.5 µM; TGI (HS 578T breast): 1.32 µM; TGI (HT29 colon): 6.8 µM; TGI (IGROV1 ovarian): 21.3 µM; TGI (KM12 colon): > 36 µM; TGI (LOX IMVI melanoma): 10.6 µM; TGI (M14 melanoma): 6.48 µM; TGI (MALME-3M melanoma): 1.64 µM; TGI (MCF7 breast): > 38.1 µM; TGI (MDA-MB-231 breast): 1.54 µM; TGI (MDA-MB-435): 6.51 µM; TGI (MDA-N): 10.8 µM; TGI (MOLT-4 leukemia): > 19.8 µM; TGI (NCI-H226 lung): 11.1 µM; TGI (NCI-H23 lung): 19.2 µM; TGI (NCI-H460 lung): 2.24 µM; TGI (NCI-H522 lung): 3.06 µM; TGI (NCI/ADR-RES ovarian): 7.4 µM; TGI (OVCAR-3 ovarian): > 25.1 µM; TGI (OVCAR-4 ovarian): 24.6 µM; TGI (OVCAR-5 ovarian): 12.3 µM; TGI (OVCAR-8 ovarian): 4.72 µM; TGI (PC-3 prostate): 2.46 µM; TGI (RXF 393 renal): 2.2 µM; TGI (SF-268 CNS): 1.58 µM; TGI (SF-295 CNS): 18.5 µM; TGI (SF-539 CNS): 1.91 µM; TGI (SK-MEL-2 melanoma): 31.9 µM; TGI (SK-MEL-28 melanoma): 2 µM; TGI (SK-MEL-5 melanoma): 15.5 µM; TGI (SK-OV-3 ovarian): 6.38 µM; TGI (SN12C renal): 11.3 µM; TGI (SNB-19 CNS): 6 µM; TGI (SNB-75 CNS): 1.32 µM; TGI (SR leukemia): 65.5 µM; TGI (SW-620 colon): > 100 µM; TGI (T-47D breast): 18 µM; TGI (TK-10 renal): 6.14 µM; TGI (U251 CNS): 1.85 µM; TGI (UACC-257 melanoma): 12.7 µM; TGI (UACC-62 melanoma): > 54.2 µM; TGI (UO-31 renal): 6.68 µM
